These results are taken from patent US20070082937A1, “Anti cancer combinations comprising a cox-2 inhibitor” (Cancer Research Technology Limited, priority 2003, published 2007).

One assay deals with colon 38 tumours. Put plainly: Tumour growth delay assay. Format: in vivo, mice. The method, then:
C57B1/6 mice from the Animal Resource Unit, University of Auckland, were bred and housed under conditions of constant temperature and humidity, with sterile bedding and food, according to institutional ethical guidelines. All mice were aged between 8 and 12 weeks.
DMXAA was synthesized as the sodium salt (Rewcastle et al., (1990) Journal of National Cancer Institute 82:528-529). DMXAA sodium salt was dissolved in neutral aqueous solution and 25 mg/kg, in a volume of 0.1 ml per 10 g body weight, was injected intraperitoneally (i.p.) into mice.
Vioxx™ (Sigma) was made up in neutral aqueous solution and 100 or 150 mg/kg, in a volume of 0.1 ml per 10 g body weight, was injected intraperitoneally (i.p.) into mice. […]
Colon 38 tumour fragments (˜1 mm^3) were implanted subcutaneously (s.c.) in anaesthetized (sodium pentobarbitone, 90 mg/kg) mice. […] Tumour-bearing mice were treated with drugs according to the administration schedule described before, and the tumours measured using calipers, at three day intervals thereafter. Tumour volumes were calculated as 0.52a^2b, where a and b are the minor and major axes of the tumour, respectively. The arithmetic means were calculated for each time point, counting cured tumours as zero volume. The growth delay was determined as the difference in the number of days required for the control versus treated tumours to increase four times in volume. […]

The subject of the next assay is tumour blood flow. As to conditions: human tumours, well-tolerated doses, dynamic MRI; cited from earlier work.

The structures appear in SMILES notation.

For `Cc1ccc2c(=O)c3cccc(CC(=O)O)c3oc2c1C` [DMXAA, 5,6-dimethylxanthenone-4-acetic acid], in the assay with colon 38 tumours (DMXAA alone 25 mg/kg i.p., colon 38 tumours s.c. in mice, 6 mice), the mice cured result is “None and no cure”. Further, the tumour blood flow entry in the assay on tumour blood flow is recorded as “significant reduction”. In the case of `CS(=O)(=O)c1ccc(C2=C(c3ccccc3)C(=O)OC2)cc1` [Vioxx™, rofecoxib, reference compound], the “effect on the growth of colon 38 tumours” value in the assay on colon 38 tumours (Vioxx alone 150 mg/kg i.p., colon 38 tumours s.c. in C57Bl/6 mice) is “no significant effect”.
